According to patent publication US9624167B2, “N-(4-hydroxy-4-methyl-cyclohexyl)-4-phenyl-benzenesulfonamides and N-(4-hydroxy-4-methyl-cyclohexyl)-4-(2-pyridyl)benzenesulfonamides and their therapeutic use” (PIMCO 2664 LIMITED, priority 2013, dated 2017):
Read-outs that look alike come from different tables or passages of the source. Marks after values point to notes of the source that are not given here.

What was measured:
[1] = Maximum Tolerated Dose, Sprague-Dawley rats; settings: rat, in vivo, oral, ascending dose
Description: The acute safety of the compounds was assessed in rats in order to enable determination of the maximum tolerated dose (MTD), an indication of a compound's safety in animals. The higher the MTD, the greater is the potential safety of the compound being tested.
Two male and two female Sprague-Dawley rats, aged 8-12 weeks, were dosed at each dose level in an ascending dose study design. The test compounds were administered orally as a suspension formulated in 0.5% carboxymethylcellulose (CMC)/0.1% Tween-80 in a dose volume of 10 mL/kg. Animals were given free access to food throughout the study.
Animals were observed on at least two occasions during the first hour following dosing, approximately 30 minutes apart, and thereafter at hourly intervals for the remainder of the dosing day for at least 4 hours. […] The nature and severity, where appropriate, of the clinical signs and time were recorded at each observation. Observations included changes in the skin, fur, eyes, and mucous membranes, and also the respiratory, circulatory, autonomic, and central nervous system, as well as somatomotor activity and behaviour pattern. Particular attention was directed towards the observation of tremors, convulsions, salivation, diarrhoea, lethargy, sleep, and coma.
At the completion of the study, the results were expressed as the maximum tolerated dose for each compound, this being the highest of each without unacceptable toxicity.
The maximum dose without unacceptable side-effects was determined to be the MTD (expressed in mg/kg).

[2] = Rodent pharmacokinetics study; type: in vivo, Sprague-Dawley rats; settings: rat; for p.o. AUC: dosed at 10 mg/kg orally (‡)
[3] = tested on: collagen-induced arthritis; assay: Mouse Collagen-Induced Arthritis; type: in vivo, DBA/1j mice
Description: Seven- to eight-week-old male DBA/1j mice were used for all procedures. Animals were housed in groups of 10, and were maintained at 21° C.±2° C. on a 12-hour light/dark cycle with food and water ad libitum. […]. All mice were immunised subcutaneously with 200 μg of bovine type II collagen in CFA. 21 days later, all mice were immunised subcutaneously with 100 μg of bovine type II collagen in IFA.
The mice started to develop signs and symptoms of arthritis following the ‘booster’ immunisation.
(§1) For macroscopic assessment of arthritis, the following signs were monitored in each paw of each mouse three times per week and summed to generate the Arthritic Index (AI) (the maximum AI for one animal is 16): • 0=no visible effects of arthritis. • 1=oedema and/or erythema of 1 digit. • 2=oedema and/or erythema of 2 digits. • 3=oedema and/or erythema of more than 2 digits. • 4=severe arthritis of entire paw and digits.
Animals were sorted into treatment groups with a mean arthritic index of 2.5 and then dosed once daily for 14 days with compound by oral gavage for test compounds, or by subcutaneous injection at a dose of 10 mg/kg for the positive control, etanercept. After completion of the experiment, the mice were sacrificed.
(§2) The data were analysed by generating an average of the arthritic index across each treatment group. The mean arthritic index was then compared to the arthritic index of control (untreated) animals using the following formula to generate a percentage inhibition of disease.

hERG ion channel = molecular target: T1, hERG ion channel (Homo sapiens, UniProt Q12809); assay: hERG Ion Channel Assay (Q-patch, hERG-CHO cells); type: cell-based; settings: hERG tail current, hERG-CHO cells, Q-patch; read-out: IC50 (1)
T1 construct: expressed in transfected cells; host or cells: Chinese Hamster Ovary cells (hERG-CHO), stably transfected
Description: The activity of the compounds against the hERG ion channel was tested. The assay was conducted using the automated path-clamp, Q-patch method using stably transfected Chinese Hamster Ovary cells (hERG-CHO). hERG-CHO cells were cultured in F-12 Kaighn's Nutrient Mixture medium (Invitrogen)+10% FBS at 37° C. for 1-3 days. Cells were kept at 30° C. for 24 to 48 hours prior to patch clamping in order to increase the hERG current amplitude. Subsequently, the cells were harvested by trypsinisation, and kept in Serum Free Medium (SFM) in the Q-patch cell preparation state for up to 6 hours at room temperature before being washed and re-suspended in extracellular solution and applied to the patch clamp sites for data recording.
Patch-clamp voltage protocol: After whole cell configuration was achieved, the cell was held at −80 mV. A 50 millisecond pulse to −40 mV was delivered to measure the leaking current, which was subtracted from the tail current on-line. Then the cell was depolarized to +20 mV for 2 seconds, followed by a one second pulse to −40 mV to reveal hERG tail current. This paradigm was delivered once every 5 seconds to monitor the current amplitude.
Extracellular solution: 137 mM NaCl, 4 mM KCl, 1.8 mM CaCl2, 1 mM MgCl2, 10 mM D(+)-glucose, 10 mM HePES buffer (pH adjusted to 7.4 with NaOH).
After the whole cell configuration was achieved, the extracellular solution (control) was applied first and the cell was stabilized for 2 minutes in extracellular solution. The test compound was then applied from low concentrations to high concentrations cumulatively. The cell was incubated with each test concentration for 5 minutes. During each incubation, the cell was repetitively stimulated using the voltage protocol described above, and the tail current amplitude was continuously monitored.
• (1) Peak tail current >100 pA in control. • (2) Initial run-down <30% and the run-down stops before first application of the test compound. • (3) Leak currents <50% of the control peak tail currents at any time. • (4) rs<20 MΩ throughout the experiment.
The degree of inhibition (%) was obtained by measuring the tail current amplitude, induced by a one second test pulse to −40 mV after a two second pulse to +20 mV, before and after incubation with the test compound. The difference in current was normalized to control and multiplied by 100 in order to obtain the percent inhibition.
Concentration (log) response curves were fitted to a logistic equation (three parameters assuming complete block of the current at very high test compound concentrations) to generate estimates of the 50% inhibitory concentration (IC50). The concentration-response relationship of each compound was constructed from the percentage reductions of current amplitude by sequential concentrations.

[4] = tested on: pristane-induced arthritis; assay: Rat Pristane-Induced Arthritis Study; type: in vivo; settings: for % inhibition of disease: once daily for 28 days; for Tolerability during extended dosing: rat pristane-induced arthritis study, oral, up to 28 days
Description: Female Lewis rats were used for all procedures. Animals were housed in groups of 5, and were maintained at 21° C.±2° C. on a 12-hour light/dark cycle with food and water ad libitum. Arthritis was induced by the administration of 0.3 mL pristane intra-dermally at the base of the tail. The rats started to develop signs and symptoms of arthritis approximately seven days after the pristane injection.
as §1, with “and digits including limb deformation and ankylosis of the joint.” for “and digits.”
Animals were sorted into treatment groups prior to pristane administration and dosed once daily for 28 days with test compound at doses of 3 and 10 mg/kg/day by oral gavage, or by intraperitoneal injection at a dose of 0.05 mg/kg for the positive control, methotrexate. After completion of the experiment, the rats were sacrificed.
as §2

[5] = female Sprague-Dawley rats, read-out: Maximum tolerated dose, Females
[6] = male Sprague-Dawley rats, read-out: Maximum tolerated dose, Males
[7] = 10 mg/kg/day oral gavage, once daily for 14 days, arthritic index vs control
[8] = dosed at 0.5 mg/kg intravenously (*)
[9] = dosed at 2 mg/kg intravenously (†)

T1 sequence (Q12809 whole entry): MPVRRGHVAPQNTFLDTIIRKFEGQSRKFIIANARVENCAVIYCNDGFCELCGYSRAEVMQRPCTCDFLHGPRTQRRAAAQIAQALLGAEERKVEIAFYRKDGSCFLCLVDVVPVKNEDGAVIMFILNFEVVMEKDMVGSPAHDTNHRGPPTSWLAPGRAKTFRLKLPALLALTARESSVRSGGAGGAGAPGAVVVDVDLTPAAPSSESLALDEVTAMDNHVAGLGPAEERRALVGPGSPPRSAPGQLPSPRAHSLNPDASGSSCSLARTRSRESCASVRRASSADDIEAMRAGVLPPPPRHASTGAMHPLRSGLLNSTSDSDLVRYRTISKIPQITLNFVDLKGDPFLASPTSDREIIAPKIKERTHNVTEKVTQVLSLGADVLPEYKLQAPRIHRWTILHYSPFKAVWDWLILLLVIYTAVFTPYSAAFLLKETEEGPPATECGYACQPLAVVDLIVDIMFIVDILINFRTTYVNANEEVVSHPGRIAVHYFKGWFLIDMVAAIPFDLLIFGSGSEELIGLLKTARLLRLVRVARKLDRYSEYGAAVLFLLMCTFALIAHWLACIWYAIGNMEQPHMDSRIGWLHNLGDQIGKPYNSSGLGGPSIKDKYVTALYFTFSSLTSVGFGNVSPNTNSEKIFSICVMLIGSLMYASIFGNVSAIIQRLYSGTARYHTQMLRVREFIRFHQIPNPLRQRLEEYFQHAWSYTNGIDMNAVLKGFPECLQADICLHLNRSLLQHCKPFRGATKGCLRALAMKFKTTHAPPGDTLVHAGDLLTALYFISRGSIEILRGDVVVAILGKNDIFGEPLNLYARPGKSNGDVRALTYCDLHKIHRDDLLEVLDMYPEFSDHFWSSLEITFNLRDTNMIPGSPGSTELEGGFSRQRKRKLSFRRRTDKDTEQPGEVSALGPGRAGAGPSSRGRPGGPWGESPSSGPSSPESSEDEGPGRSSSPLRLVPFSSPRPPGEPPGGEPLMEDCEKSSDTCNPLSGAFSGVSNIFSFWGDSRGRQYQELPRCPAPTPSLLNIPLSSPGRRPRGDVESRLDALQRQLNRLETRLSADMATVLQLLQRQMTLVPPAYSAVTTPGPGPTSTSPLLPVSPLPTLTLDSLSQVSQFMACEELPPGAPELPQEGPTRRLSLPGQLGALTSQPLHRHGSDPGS

SMILES | MTD [1, 5] [mg/kg] | MTD [1, 6] [mg/kg] | % inhibition of disease [3, 7] [%] | IC50 (hERG ion channel) [µM] | other results
Cc1cc(S(=O)(=O)NC2CCC(C)(O)CC2)ccc1-c1ccc(F)cc1F (single isomer, unassigned) [REF001, reference compound] | 7.5 | 10 |  |  | p.o. AUC [2]: 4766 ng·min/mL
Cc1cc(S(=O)(=O)N[C@H]2CC[C@H](O)CC2)ccc1-c1ccc(F)cc1F [ABD735] | 20 | 10 | 44 |  | p.o. AUC [2]: 8965 ng·min/mL
C[C@]1(O)CC[C@H](NS(=O)(=O)c2ccc(-c3ccc(Cl)cc3C#N)cc2)CC1 [HMC-C-01-A, 4′-Chloro-2′-cyano-N-((1r,4r)-4-hydroxy-4-methylcyclohexyl)biphenyl-4-sulfonamide] | 70 | 70 | 40 | 19.3 | % inhibition of disease ([3]; 0.3 mg/kg/day oral gavage, once daily for 14 days): 60%; % inhibition of disease ([3]; 1 mg/kg/day oral gavage, once daily for 14 days): 50%; % inhibition of disease ([3]; 3 mg/kg/day oral gavage, once daily for 14 days): 60%; Efficacy compared with positive control etanercept ([3]; low doses (0.3 and 3 mg/kg/day) vs etanercept 10 mg/kg subcutaneous): greater efficacy than the marketed treatment, etanercept, at low doses; % inhibition of disease ([4]; 3 mg/kg/day oral gavage): 40%; % inhibition of disease ([4]; 10 mg/kg/day oral gavage): 67%; Efficacy compared with positive control methotrexate ([4]; methotrexate 0.05 mg/kg intraperitoneal): equivalent to that of the marketed first-line therapy for rheumatoid arthritis, methotrexate; Tolerability during extended dosing [4]: tolerated well
C[C@]1(O)CC[C@@H](NS(=O)(=O)c2ccc(-c3ccc(Cl)cc3C#N)cc2)CC1 [HMC-C-01-B, 4′-Chloro-2′-cyano-N-((1s,4s)-4-hydroxy-4-methylcyclohexyl)-[1,1′-biphenyl]-4-sulfonamide] |  |  | 26 |  | 
C[C@]1(O)CC[C@H](NS(=O)(=O)c2ccc(-c3ccc(F)cc3C(F)(F)F)cc2)CC1 [HMC-C-02-A, 4′-Fluoro-N-((1r,4r)-4-hydroxy-4-methylcyclohexyl)-2′-(trifluoromethyl)biphenyl-4-sulfonamide] | > 200 | > 200 | 61 | 25 | 
C[C@]1(O)CC[C@H](NS(=O)(=O)c2ccc(-c3c(F)cc(F)cc3F)cc2)CC1 [HMC-C-03-A, 2′,4′,6′-Trifluoro-N-((1r,4r)-4-hydroxy-4-methylcyclohexyl)biphenyl-4-sulfonamide] | 30 | 30 |  | > 30 | 
C[C@]1(O)CC[C@@H](NS(=O)(=O)c2ccc(-c3c(F)cc(F)cc3F)cc2)CC1 [HMC-C-03-B, 2′,4′,6′-Trifluoro-N-((1s,4s)-4-hydroxy-4-methylcyclohexyl)-[1,1′-biphenyl]-4-sulfonamide] |  |  |  |  | i.v. AUC [2, 8]: 816* ng·min/mL
C[C@]1(O)CC[C@@H](NS(=O)(=O)c2ccc(-c3ccc(F)cc3F)c(F)c2)CC1 [HMC-C-04-B, 2,2′,4′-Trifluoro-N-((1s,4s)-4-hydroxy-4-methylcyclohexyl)-[1,1′-biphenyl]-4-sulfonamide] |  |  |  |  | i.v. AUC [2, 8]: 1589* ng·min/mL
C[C@]1(O)CC[C@H](NS(=O)(=O)c2ccc(-c3ncc(F)cc3F)c(F)c2)CC1 [HMC-N-01-A, 4-(3,5-Difluoropyridin-2-yl)-3-fluoro-N-((1r,4r)-4-hydroxy-4-methylcyclohexyl)benzenesulfonamide] | 80 | 80 | 45 | 183 | % inhibition of disease ([4]; 3 mg/kg/day oral gavage): 39%; % inhibition of disease ([4]; 10 mg/kg/day oral gavage): 60%; Tolerability during extended dosing [4]: tolerated well
C[C@]1(O)CC[C@@H](NS(=O)(=O)c2ccc(-c3ncc(F)cc3F)c(F)c2)CC1 [HMC-N-01-B, 4-(3,5-Difluoropyridin-2-yl)-3-fluoro-N-((1s,4s)-4-hydroxy-4-methylcyclohexyl)benzenesulfonamide] |  |  |  |  | % inhibition of disease ([3]; dose reduced from 10 to 1 mg/kg/day due to mortality, oral gavage): 38%
C[C@]1(O)CC[C@H](NS(=O)(=O)c2ccc(-c3ncc(F)cc3F)cc2)CC1 [HMC-N-02-A, 4-(3,5-Difluoropyridin-2-yl)-N-((1r,4r)-4-hydroxy-4-methylcyclohexyl)benzenesulfonamide] | > 200 | > 200 | 36 | 231 | i.v. AUC [2, 9]: 3053 ng·min/mL
C[C@]1(O)CC[C@H](NS(=O)(=O)c2ccc(-c3ncc(Cl)cc3Cl)cc2)CC1 [HMC-N-03-A, 4-(3,5-Dichloropyridin-2-yl)-N-((1r,4r)-4-hydroxy-4-methylcyclohexyl)benzenesulfonamide] | 50 | 50 |  | > 30 | i.v. AUC [2, 9]: 5102 ng·min/mL
C[C@]1(O)CC[C@@H](NS(=O)(=O)c2ccc(-c3ncc(Cl)cc3Cl)cc2)CC1 [HMC-N-03-B, 4-(3,5-Dichloropyridin-2-yl)-N-((1s,4s)-4-hydroxy-4-methylcyclohexyl)benzenesulfonamide] |  |  |  |  | i.v. AUC [2, 8]: 1380* ng·min/mL
C[C@]1(O)CC[C@H](NS(=O)(=O)c2ccc(-c3ncc(Cl)cc3Cl)c(F)c2)CC1 [HMC-N-04-A, 4-(3,5-Dichloropyridin-2-yl)-3-fluoro-N-((1r,4r)-4-hydroxy-4-methylcyclohexyl)benzenesulfonamide] |  |  |  | > 30 | 
